Source: ChEMBL document CHEMBL1129860, “Studies on penam sulfones III. Synthesis and -lactamase inhibitory activity of sodium (6R)-6-(-hydroxybenzyl)-2-methoxyiminomethyl-2-methylpenam-3-carboxylate 1,1-dioxide and sodium 2-acyl-2-methylpenam-3-carboxylate 1,1-dioxide” (1997)
Converted amounts (≈) assume the structure as drawn.

Experiments:
Format in all cases: functional
Citrobacter freundii [1] = assay: In vitro minimal inhibitory concentration (MIC) of compound in combination with piperacillin (PIPC) showed synergic activity against Citrobacter freundii 2046E
Citrobacter freundii [2] = assay: In vitro minimal inhibitory concentration (MIC) of compound in combination with piperacillin (PIPC) showed synergic activity against Citrobacter freundii 44032
Escherichia coli [3] = assay: In vitro minimal inhibitory concentration (MIC) of compound in combination with piperacillin (PIPC) showed synergic activity against Escherichia coli TEM 3
Klebsiella aerogenes [4] = assay: In vitro minimal inhibitory concentration (MIC) of compound in combination with piperacillin (PIPC) showed synergic activity against Enterobacter aerogenes 41003
Klebsiella aerogenes [5] = assay: In vitro minimal inhibitory concentration (MIC) of compound in combination with piperacillin (PIPC) showed synergic activity against Enterobacter aerogenes 41004
Enterobacter cloacae [6] = assay: In vitro minimal inhibitory concentration (MIC) of compound in combination with piperacillin (PIPC) showed synergic activity against Enterobacter cloacae 40011
Enterobacter cloacae [7] = assay: In vitro minimal inhibitory concentration (MIC) of compound in combination with piperacillin (PIPC) showed synergic activity against Enterobacter cloacae 40015
Enterobacter cloacae [8] = assay: In vitro minimal inhibitory concentration (MIC) of compound in combination with piperacillin (PIPC) showed synergic activity against Enterobacter cloacae P99
Escherichia coli [9] = assay: In vitro minimal inhibitory concentration (MIC) of compound in combination with piperacillin (PIPC) showed synergic activity against Escherichia coli SHV 5
Escherichia coli [10] = assay: In vitro minimal inhibitory concentration (MIC) of compound in combination with piperacillin (PIPC) showed synergic activity against Escherichia coli TEM 7
Escherichia coli [11] = assay: In vitro minimal inhibitory concentration (MIC) of compound in combination with piperacillin (PIPC) showed synergic activity against Escherichia coli OXA 1
Escherichia coli [12] = assay: In vitro minimal inhibitory concentration (MIC) of compound in combination with piperacillin (PIPC) showed synergic activity against Escherichia coli SHV 1
Klebsiella pneumoniae [13] = assay: In vitro minimal inhibitory concentration (MIC) of compound in combination with piperacillin (PIPC) showed synergic activity against Klebsiella pneumoniae CTX 1
Morganella morganii [14] = assay: In vitro minimal inhibitory concentration (MIC) of compound in combination with piperacillin (PIPC) showed synergic activity against Morganella morganii 36014
Pseudomonas aeruginosa [15] = assay: In vitro minimal inhibitory concentration (MIC) of compound in combination with piperacillin (PIPC) showed synergic activity against Pseudomonas aeruginosa 46220 (DR-2)
Proteus vulgaris [16] = assay: In vitro minimal inhibitory concentration (MIC) of compound in combination with piperacillin (PIPC) showed synergic activity against Proteus vulgaris CT 106
Staphylococcus aureus [17] = assay: In vitro minimal inhibitory concentration (MIC) of compound in combination with piperacillin (PIPC) showed synergic activity against Staphylococcus aureus 80K
Escherichia coli [18] = assay: In vitro minimal inhibitory concentration (MIC) of compound in combination with piperacillin (PIPC) showed synergic activity against Escherichia coli OXA 3
Serratia marcescens [19] = assay: In vitro minimal inhibitory concentration (MIC) of compound in combination with piperacillin (PIPC) showed synergic activity against Serratia marcescens 200 L
Klebsiella aerogenes [20] = assay: In vitro minimal inhibitory concentration (MIC) of compound in combination with piperacillin (PIPC) showed synergic activity against Enterobacter aerogenes 41006
Staphylococcus aureus [21] = assay: In vitro minimal inhibitory concentration (MIC) of compound in combination with piperacillin (PIPC) showed synergic activity against Staphylococcus aureus 54K
Citrobacter freundii [22] = assay: In vitro minimal inhibitory concentration (MIC) of compound against Citrobacter freundii 44032
Klebsiella aerogenes [23] = assay: In vitro minimal inhibitory concentration (MIC) of compound against Enterobacter aerogenes 41003
Klebsiella aerogenes [24] = assay: In vitro minimal inhibitory concentration (MIC) of compound against Enterobacter aerogenes 41004
Klebsiella aerogenes [25] = assay: In vitro minimal inhibitory concentration (MIC) of compound against Enterobacter aerogenes 41006
Klebsiella aerogenes [26] = assay: In vitro minimal inhibitory concentration (MIC) of compound against Enterobacter aerogenes S-97
Enterobacter cloacae [27] = assay: In vitro minimal inhibitory concentration (MIC) of compound against Enterobacter cloacae 40011
Enterobacter cloacae [28] = assay: In vitro minimal inhibitory concentration (MIC) of compound against Enterobacter cloacae E40002
Enterobacter cloacae [29] = assay: In vitro minimal inhibitory concentration (MIC) of compound against Enterobacter cloacae P99
Enterobacter cloacae [30] = assay: In vitro minimal inhibitory concentration (MIC) of compound against Enterobacter cloacae S-11
Enterobacter cloacae [31] = assay: In vitro minimal inhibitory concentration (MIC) of compound against Enterobacter cloacae S-65
Escherichia coli [32] = assay: In vitro minimal inhibitory concentration (MIC) of compound against Escherichia coli TEM 3
Escherichia coli [33] = assay: In vitro minimal inhibitory concentration (MIC) of compound against Escherichia coli TEM 7
Klebsiella pneumoniae [34] = assay: In vitro minimal inhibitory concentration (MIC) of compound against Klebsiella pneumoniae CTX 1
Morganella morganii [35] = assay: In vitro minimal inhibitory concentration (MIC) of compound against Morganella morganii 36014
Morganella morganii [36] = assay: In vitro minimal inhibitory concentration (MIC) of compound against Morganella morganii 36030
Pseudomonas aeruginosa [37] = assay: In vitro minimal inhibitory concentration (MIC) of compound against Pseudomonas aeruginosa 46220 (DR-2)
Pseudomonas aeruginosa [38] = assay: In vitro minimal inhibitory concentration (MIC) of compound against Pseudomonas aeruginosa CT-122
Pseudomonas aeruginosa [39] = assay: In vitro minimal inhibitory concentration (MIC) of compound against Pseudomonas aeruginosa CT-137
Proteus vulgaris [40] = assay: In vitro minimal inhibitory concentration (MIC) of compound against Proteus vulgaris CT 106
Citrobacter freundii [41] = assay: In vitro minimal inhibitory concentration (MIC) of compound against Citrobacter freundii CT 76
Citrobacter freundii [42] = assay: In vitro minimal inhibitory concentration of compound against Citrobacter freundii 2046E
Citrobacter freundii [43] = assay: In vitro minimal inhibitory concentration of compound against Citrobacter freundii 44032
Escherichia coli [44] = assay: In vitro minimal inhibitory concentration of compound against Escherichia coli OXA 1
Escherichia coli [45] = assay: In vitro minimal inhibitory concentration of compound against Escherichia coli OXA 3
Escherichia coli [46] = assay: In vitro minimal inhibitory concentration of compound against Escherichia coli SHV 1
Escherichia coli [47] = assay: In vitro minimal inhibitory concentration of compound against Escherichia coli SHV 5
Escherichia coli [48] = assay: In vitro minimal inhibitory concentration of compound against Escherichia coli TEM 3
Escherichia coli [49] = assay: In vitro minimal inhibitory concentration of compound against Escherichia coli TEM 7
Klebsiella aerogenes [50] = assay: In vitro minimal inhibitory concentration of compound against Enterobacter aerogenes 41003
Klebsiella aerogenes [51] = assay: In vitro minimal inhibitory concentration of compound against Enterobacter aerogenes 41004
Klebsiella aerogenes [52] = assay: In vitro minimal inhibitory concentration of compound against Enterobacter aerogenes 41006
Enterobacter cloacae [53] = assay: In vitro minimal inhibitory concentration of compound against Enterobacter cloacae 40011
Enterobacter cloacae [54] = assay: In vitro minimal inhibitory concentration of compound against Enterobacter cloacae 40015
Enterobacter cloacae [55] = assay: In vitro minimal inhibitory concentration of compound against Enterobacter cloacae P99
Klebsiella pneumoniae [56] = assay: In vitro minimal inhibitory concentration of compound against Klebsiella pneumoniae CTX 1
Morganella morganii [57] = assay: In vitro minimal inhibitory concentration of compound against Morganella morganii 36014
Pseudomonas aeruginosa [58] = assay: In vitro minimal inhibitory concentration of compound against Pseudomonas aeruginosa 46220 (DR-2)
Proteus vulgaris [59] = assay: In vitro minimal inhibitory concentration of compound against Proteus vulgaris CT 106
Serratia marcescens [60] = assay: In vitro minimal inhibitory concentration of compound against Serratia marcescens 200 L
Staphylococcus aureus [61] = assay: In vitro minimal inhibitory concentration of compound against Staphylococcus aureus 80K
Staphylococcus aureus [62] = assay: In vitro minimal inhibitory concentration of compound against Staphylococcus aureus 54K

CCN1CCN(C(=O)NC(C(=O)N[C@@H]2C(=O)N3[C@@H]2SC(C)(C)[C@@H]3C(=O)O)c2ccccc2)C(=O)C1=O.C[C@]1(Cn2ccnn2)[C@H](C(=O)[O-])N2C(=O)CC2S1(=O)=O.[Na+] (some centres undefined)
MIC (Citrobacter freundii [1]): 0.78 µg/mL | MIC (Citrobacter freundii [2]): 200 µg/mL | MIC (Escherichia coli [3]): 3.13 µg/mL | MIC (Klebsiella aerogenes [4]): 12.5 µg/mL | MIC (Klebsiella aerogenes [5]): 12.5 µg/mL | MIC (Enterobacter cloacae [6]): 6.25 µg/mL | MIC (Enterobacter cloacae [7]): 50 µg/mL | MIC (Enterobacter cloacae [8]): 25 µg/mL | MIC (Escherichia coli [9]): ≤ 0.2 µg/mL | MIC (Escherichia coli [10]): 0.78 µg/mL | MIC (Escherichia coli [11]): 3.13 µg/mL | MIC (Escherichia coli [12]): 1.56 µg/mL | MIC (Klebsiella pneumoniae [13]): 6.25 µg/mL | MIC (Morganella morganii [14]): ≤ 0.2 µg/mL | MIC (Pseudomonas aeruginosa [15]): 12.5 µg/mL | MIC (Proteus vulgaris [16]): 1.56 µg/mL | MIC (Staphylococcus aureus [17]): 0.39 µg/mL | MIC (Escherichia coli [18]): 1.56 µg/mL | MIC (Serratia marcescens [19]): 0.78 µg/mL | MIC (Klebsiella aerogenes [20]): 100 µg/mL | MIC (Staphylococcus aureus [21]): 0.78 µg/mL

CC(=O)[C@@]1(C)[C@H](C(=O)[O-])N2C(=O)CC2S1(=O)=O.CCN1CCN(C(=O)NC(C(=O)N[C@@H]2C(=O)N3[C@@H]2SC(C)(C)[C@@H]3C(=O)O)c2ccccc2)C(=O)C1=O.[Na+] (some centres undefined)
MIC (Citrobacter freundii [1]): 1.56 µg/mL | MIC (Citrobacter freundii [2]): 12.5 µg/mL | MIC (Escherichia coli [3]): 3.13 µg/mL | MIC (Klebsiella aerogenes [4]): 3.13 µg/mL | MIC (Klebsiella aerogenes [5]): 6.25 µg/mL | MIC (Enterobacter cloacae [6]): 6.25 µg/mL | MIC (Enterobacter cloacae [7]): 25 µg/mL | MIC (Enterobacter cloacae [8]): 12.5 µg/mL | MIC (Escherichia coli [9]): 1.56 µg/mL | MIC (Escherichia coli [10]): 1.56 µg/mL | MIC (Escherichia coli [11]): 1.56 µg/mL | MIC (Escherichia coli [12]): 3.13 µg/mL | MIC (Klebsiella pneumoniae [13]): 12.5 µg/mL | MIC (Morganella morganii [14]): 0.39 µg/mL | MIC (Pseudomonas aeruginosa [15]): 6.25 µg/mL | MIC (Proteus vulgaris [16]): 25 µg/mL | MIC (Staphylococcus aureus [17]): 3.13 µg/mL | MIC (Escherichia coli [18]): 1.56 µg/mL | MIC (Serratia marcescens [19]): 3.13 µg/mL | MIC (Klebsiella aerogenes [20]): 12.5 µg/mL | MIC (Staphylococcus aureus [21]): 6.26 µg/mL

CC(C)(O/N=C(\C(=O)N[C@@H]1C(=O)N2C(C(=O)[O-])=C(C[n+]3ccccc3)CS[C@H]12)c1csc(N)n1)C(=O)O [CEFTAZIDIME]
MIC (Citrobacter freundii [22]): 400 µg/mL (≈ 732 µM) | MIC (Klebsiella aerogenes [23]): 12.5 µg/mL (≈ 22.9 µM) | MIC (Klebsiella aerogenes [24]): 12.5 µg/mL (≈ 22.9 µM) | MIC (Klebsiella aerogenes [25]): 200 µg/mL (≈ 366 µM) | MIC (Klebsiella aerogenes [26]): 8 µg/mL (≈ 14.6 µM) | MIC (Enterobacter cloacae [27]): 25 µg/mL (≈ 45.7 µM) | MIC (Enterobacter cloacae [28]): 200 µg/mL (≈ 366 µM) | MIC (Enterobacter cloacae [29]): 100 µg/mL (≈ 183 µM) | MIC (Enterobacter cloacae [30]): 2 µg/mL (≈ 3.66 µM) | MIC (Enterobacter cloacae [31]): 2 µg/mL (≈ 3.66 µM) | MIC (Escherichia coli [32]): 25 µg/mL (≈ 45.7 µM) | MIC (Escherichia coli [33]): 12.5 µg/mL (≈ 22.9 µM) | MIC (Klebsiella pneumoniae [34]): 100 µg/mL (≈ 183 µM) | MIC (Morganella morganii [35]): 25 µg/mL (≈ 45.7 µM) | MIC (Morganella morganii [35]; Morganella morganii, read-out: MIC): > 32 µg/mL | MIC (Morganella morganii [36]): > 32 µg/mL | MIC (Pseudomonas aeruginosa [37]): 25 µg/mL (≈ 45.7 µM) | MIC (Pseudomonas aeruginosa [38]): 32 µg/mL (≈ 58.5 µM) | MIC (Pseudomonas aeruginosa [39]): 16 µg/mL (≈ 29.3 µM) | MIC (Proteus vulgaris [40]): 12.5 µg/mL (≈ 22.9 µM) | MIC (Citrobacter freundii [41]): 50 µg/mL (≈ 91.5 µM)

CCN1CCN(C(=O)N[C@@H](C(=O)N[C@@H]2C(=O)N3[C@@H]2SC(C)(C)[C@@H]3C(=O)O)c2ccccc2)C(=O)C1=O [PIPERACILLIN]
MIC (Citrobacter freundii [42]): > 400 µg/mL | MIC (Citrobacter freundii [43]): 200 µg/mL (≈ 386 µM) | MIC (Escherichia coli [44]): 25 µg/mL (≈ 48.3 µM) | MIC (Escherichia coli [45]): 3.13 µg/mL (≈ 6.05 µM) | MIC (Escherichia coli [46]): > 400 µg/mL | MIC (Escherichia coli [47]): 200 µg/mL (≈ 386 µM) | MIC (Escherichia coli [48]): 200 µg/mL (≈ 386 µM) | MIC (Escherichia coli [49]): > 400 µg/mL | MIC (Klebsiella aerogenes [50]): 12.5 µg/mL (≈ 24.2 µM) | MIC (Klebsiella aerogenes [51]): 12.5 µg/mL (≈ 24.2 µM) | MIC (Klebsiella aerogenes [52]): 100 µg/mL (≈ 193 µM) | MIC (Enterobacter cloacae [53]): 50 µg/mL (≈ 96.6 µM) | MIC (Enterobacter cloacae [54]): 100 µg/mL (≈ 193 µM) | MIC (Enterobacter cloacae [55]): 100 µg/mL (≈ 193 µM) | MIC (Klebsiella pneumoniae [56]): > 400 µg/mL | MIC (Morganella morganii [57]): 50 µg/mL (≈ 96.6 µM) | MIC (Pseudomonas aeruginosa [58]): 100 µg/mL (≈ 193 µM) | MIC (Proteus vulgaris [59]): 200 µg/mL (≈ 386 µM) | MIC (Serratia marcescens [60]): 200 µg/mL (≈ 386 µM) | MIC (Staphylococcus aureus [61]): 50 µg/mL (≈ 96.6 µM) | MIC (Staphylococcus aureus [62]): 200 µg/mL (≈ 386 µM)
